The source of these data is PubChem BioAssay (NCI).

Molecules are shown by their SMILES.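 These data come from cells grown in 96-well plates and exposed to compound for 48 hours at five concentrations. GI50 is the concentration that inhibits growth by half. TGI is the concentration that stops growth completely.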

Among the test systems are COLO 205 colon; CAKI-1 renal; HOP-62 NSCLC; OVCAR-5 ovarian; MOLT-4 leukemia; A549 NSCLC; K-562 leukemia; SF-295 CNS; HOP-92 NSCLC; MALME-3M melanoma.
Holding throughout (test): NCI tumour cell line growth inhibition, 48 h

As for `O=C1NC(=NCCc2ccccc2F)S/C1=C\c1ccc2ncccc2c1`, the GI50 was 6.54 µM with COLO 205 colon; 5.29 µM in the experiment on CAKI-1 renal; 9.31 µM in the experiment with HOP-62 NSCLC; more than 20.4 µM in the experiment on OVCAR-5 ovarian; 9.02 µM in the experiment on MOLT-4 leukemia; 5.39 µM with A549 NSCLC. The GI50 with K-562 leukemia is 2.78 µM; with SF-295 CNS, 7.06 µM; in the experiment with HOP-92 NSCLC, 7.84 µM; in the experiment with MALME-3M melanoma, 11.4 µM. Further, the TGI in the experiment on COLO 205 colon is more than 25 µM; in the experiment with CAKI-1 renal, more than 19.7 µM; with HOP-62 NSCLC, more than 25 µM; in the experiment with OVCAR-5 ovarian, more than 25 µM; in the experiment on MOLT-4 leukemia it was more than 25 µM; in the experiment on A549 NSCLC it was more than 25 µM. For the same compound, the TGI in the experiment with K-562 leukemia, in the experiment on SF-295 CNS, with HOP-92 NSCLC and in the experiment on MALME-3M melanoma was more than 25 µM in each case.

As for `C/C(=N\O)C1CC(CC(=O)O)C1(C)C` (stereo not given), the TGI in the experiment on COLO 205 colon, in the experiment on CAKI-1 renal, with HOP-62 NSCLC, in the experiment with OVCAR-5 ovarian, with MOLT-4 leukemia and with A549 NSCLC was more than 100 µM throughout. The TGI with K-562 leukemia, with SF-295 CNS, with HOP-92 NSCLC and in the experiment with MALME-3M melanoma was more than 100 µM throughout.

Turning to `Cc1ccc2c(-c3ccnc(Nc4cccc(C(F)(F)F)c4)n3)c(-c3ccccc3)nn2n1`, the GI50 was 4.04 µM in the experiment on COLO 205 colon; 2.83 µM with CAKI-1 renal; 14.4 µM in the experiment on HOP-62 NSCLC; 10.2 µM in the experiment with OVCAR-5 ovarian; more than 25 µM with MOLT-4 leukemia; 6.18 µM with A549 NSCLC. The GI50 in the experiment with K-562 leukemia was more than 25 µM; with SF-295 CNS it was more than 13.4 µM; in the experiment on HOP-92 NSCLC, more than 25 µM; in the experiment with MALME-3M melanoma it was more than 16.4 µM. In addition, the TGI in the experiment on COLO 205 colon is more than 25 µM; in the experiment on CAKI-1 renal it was more than 25 µM; with HOP-62 NSCLC, more than 25 µM; in the experiment with OVCAR-5 ovarian, 24.6 µM; with MOLT-4 leukemia, more than 25 µM; with A549 NSCLC, more than 25 µM. The TGI in the experiment on K-562 leukemia is more than 25 µM; with SF-295 CNS, more than 25 µM; with HOP-92 NSCLC, more than 25 µM; in the experiment with MALME-3M melanoma, more than 22.8 µM.

With `Cn1cc(Nc2nccc(-c3ccc4c(c3)CN(C3COC3)CC[C@H]4NC(=O)c3cn(C(C)(C)C)nn3)n2)cn1`, the GI50 with COLO 205 colon is 30.6 µM; with CAKI-1 renal it was 37.7 µM; with HOP-62 NSCLC, more than 100 µM; in the experiment on OVCAR-5 ovarian, 45.2 µM; in the experiment with MOLT-4 leukemia, 89.7 µM; in the experiment on A549 NSCLC it was 86.8 µM. Also, the GI50 was 28 µM in the experiment with K-562 leukemia, more than 100 µM with SF-295 CNS, 16 µM in the experiment with HOP-92 NSCLC and 38 µM with MALME-3M melanoma. The TGI with COLO 205 colon, with CAKI-1 renal, with HOP-62 NSCLC, with OVCAR-5 ovarian, in the experiment with MOLT-4 leukemia and in the experiment on A549 NSCLC was more than 100 µM in each case. Also, the TGI was more than 100 µM with K-562 leukemia, more than 100 µM with SF-295 CNS, 89.7 µM in the experiment with HOP-92 NSCLC and more than 100 µM in the experiment on MALME-3M melanoma.

On to `Cc1[nH]c(N)nc(=S)c1CCCNc1ccccc1`, for which the TGI in the experiment on COLO 205 colon was 66.9 µM; in the experiment with CAKI-1 renal, more than 100 µM; in the experiment on HOP-62 NSCLC, more than 100 µM; in the experiment with OVCAR-5 ovarian, more than 100 µM; with MOLT-4 leukemia it was 21.1 µM; in the experiment with A549 NSCLC it was more than 100 µM. Moreover, the TGI was more than 100 µM in the experiment with K-562 leukemia, more than 100 µM in the experiment with SF-295 CNS, more than 100 µM in the experiment with HOP-92 NSCLC and 99 µM in the experiment on MALME-3M melanoma.

Turning to `Cc1ccc(/C=C(/C#N)n2nnc3cccc(F)c32)cc1`, the GI50 in the experiment on COLO 205 colon is 0.387 µM; with CAKI-1 renal it was 0.327 µM; in the experiment with HOP-62 NSCLC it was 1.37 µM; in the experiment with OVCAR-5 ovarian it was 0.673 µM; in the experiment on MOLT-4 leukemia, 0.394 µM; in the experiment on A549 NSCLC, 0.696 µM. Further, the GI50 in the experiment with K-562 leukemia is 0.168 µM; with SF-295 CNS it was 0.368 µM; in the experiment with HOP-92 NSCLC, 0.309 µM; in the experiment with MALME-3M melanoma, 0.488 µM. The TGI was 3.3 µM with COLO 205 colon; 25.3 µM in the experiment with CAKI-1 renal; more than 100 µM in the experiment with HOP-62 NSCLC; 9.12 µM in the experiment with OVCAR-5 ovarian; more than 100 µM with MOLT-4 leukemia; 44.5 µM in the experiment with A549 NSCLC. The TGI was more than 100 µM with K-562 leukemia, 7.39 µM in the experiment with SF-295 CNS, 4.75 µM in the experiment on HOP-92 NSCLC and 17.6 µM in the experiment on MALME-3M melanoma.

Regarding `NC(=O)NC(=O)Nc1ccc(Br)cc1`, the TGI in the experiment on COLO 205 colon is more than 28.8 µM; with CAKI-1 renal, more than 35.1 µM; in the experiment on HOP-62 NSCLC, more than 30.8 µM; in the experiment with OVCAR-5 ovarian it was more than 100 µM; with MOLT-4 leukemia it was more than 100 µM; in the experiment on A549 NSCLC, more than 100 µM. Also, the TGI in the experiment with K-562 leukemia is more than 100 µM; with SF-295 CNS it was more than 100 µM; in the experiment with HOP-92 NSCLC, more than 100 µM; in the experiment on MALME-3M melanoma, more than 27.9 µM.

On to `N#C/C(=C\c1ccc(O)c(O)c1)C(=O)NCc1cccc(C(F)(F)F)c1`, for which the GI50 in the experiment on COLO 205 colon was 24.4 µM; in the experiment with CAKI-1 renal, 2.05 µM; with HOP-62 NSCLC, 13.4 µM; in the experiment with OVCAR-5 ovarian, 19.6 µM; in the experiment on MOLT-4 leukemia, 5.65 µM; with A549 NSCLC, 15.1 µM. The GI50 in the experiment on K-562 leukemia was 21.3 µM; in the experiment with SF-295 CNS it was 1.97 µM; in the experiment on HOP-92 NSCLC, 3.2 µM; in the experiment with MALME-3M melanoma, 2.03 µM. The TGI in the experiment on COLO 205 colon was determined as 76.6 µM; in the experiment with CAKI-1 renal, 7.39 µM; in the experiment with HOP-62 NSCLC, 42.2 µM; in the experiment on OVCAR-5 ovarian, 55 µM; in the experiment with MOLT-4 leukemia, 41.2 µM; with A549 NSCLC it was 90 µM. Moreover, the TGI with K-562 leukemia is more than 100 µM; in the experiment with SF-295 CNS, 15.7 µM; in the experiment with HOP-92 NSCLC, 26.8 µM; in the experiment on MALME-3M melanoma, 25.2 µM.

With `COC(=O)C1C(=O)C(C(=O)OC)C2CCC1N2C` (stereo not given), the TGI in the experiment with COLO 205 colon is more than 100 µM; with CAKI-1 renal it was more than 100 µM; with HOP-62 NSCLC, more than 100 µM; with OVCAR-5 ovarian, more than 100 µM; in the experiment on MOLT-4 leukemia, more than 57.9 µM; in the experiment on A549 NSCLC, more than 100 µM. Further, the TGI in the experiment on K-562 leukemia is more than 100 µM; in the experiment with SF-295 CNS it was more than 100 µM; in the experiment on HOP-92 NSCLC it was more than 77.3 µM; in the experiment on MALME-3M melanoma, 51.9 µM.
